Test system: 4H system [HUVEC+(IL-4 and histamine)]
Assay: BioMAP 4H system
Assay type: cell-based, Human
Text: In this study LMW-DS was characterized by profiling in the BioMAP® Diversity PLUS panel. The BioMAP® panel consists of human primary cell-based systems designed to model different aspects of the human body in an in vitro format. The 12 systems in the BioMAP® Diversity PLUS panel (Table 32) allow test agent characterization in an unbiased way across a broad set of systems modeling various human disease states. The BioMA®P systems are constructed with one or more primary cell types from healthy human donors, with stimuli, such as cytokines or growth factors, added to capture relevant signaling networks that naturally occur in human tissue or pathological conditions. […]
Systems are derived from either single cell types or co-culture systems. […] Test agents prepared in either DMSO (small molecules; final concentration 0.1%) or PBS (biologics) are added at the indicated concentrations 1-hr before stimulation, and remain in culture for 24-hrs or as otherwise indicated (48-hrs, MyoF system; 72-hrs, BT system (soluble readouts); 168-hrs, BT system (secreted IgG)). […] Soluble factors from supernatants are quantified using either HTRF® detection, bead-based multiplex immunoassay or capture ELISA. Overt adverse effects of test agents on cell proliferation and viability (cytotoxicity) are detected by sulforhodamine B (SRB) staining, for adherent cells, and alamarBlue® reduction for cells in suspension. […]

Substance: low molecular weight dextran sulfate [LMW-DS]
- Increased biomarker activity: uPAR
